# Patent US8143227B2, “Azithromycin for treatment of skin disorders” (priority 2008, dated 2012)
# Like-named read-outs stand apart in the source and are kept apart here.
# What was measured:
# [1] = system: moderate to severe acne; experiment: Efficacy against acne (lesion counts), 40/80/120 mg per day; format: in vivo, human
# Experimental: The subjects of Example 1 were evaluated for efficacy of each dosage (40 mg, 80 mg, or 120 mg per day) in treating moderate to severe acne following treatment for 6 weeks. Before starting the treatment protocol, the number of facial non-inflammatory lesions (open and closed comedones), inflammatory lesions (papules, pustules, and nodules), and nodules were counted. The numbers of these lesions were counted again at day 21 of treatment and at day 42. The % decrease from Day 0 was calculated as the mean of the differences for each of the parameters (non-inflammatory lesions, inflammatory lesion and nodules) for each individual subject on Day 21 and Day 42. The results, including average lesion counts and efficacy assessment by percent decrease in lesion counts, are shown for the 40 mg, 80 mg, and 120 mg group, respectively, in Tables 4, 5, and 6.
# [2] = system: Streptococcus pyogenes; conditions: Neu 1991; cited from earlier work
# [3] = system: acne; conditions: 500 mg three times per week; Kapadia 2004; cited from earlier work
# [4] = Azithromycin levels in skin (follicular biopsy); format: in vivo, human; conditions: for Skin Concentration (median): follicular biopsy
# Experimental: Standardized follicular biopsy samples, representative of the pilosebaceous unit of the skin, were obtained from the upper back from each of the subjects of Example 1 on study days 0, 21, 42, and 70. The samples were analyzed to determine the tissue level of azithromycin in each biopsy sample.
# [5] = system: P. acnes; conditions: concentration that inhibits 90% of growth of the organism; Neu 1991; cited from earlier work
# [6] = Azithromycin levels in sebum (Sebutape patches); format: in vivo, human; conditions: for concentration at 42 day: human, sebum, oral
# Experimental: Sebum was collected from the subjects of Example 1 by use of Sebutape® (CuDerm Corporation, Dallas Tex.). On study days 0, 21, 42, and 70, each subject placed three Sebutape® adhesive patches on each of the forehead, and left and right cheeks on the skin of the face and left the patches in place for 30 to 40 minutes. The patches were then removed, folded in half with the adhesive side inward, placed in a sealed glass vial, and frozen at −20° C. to −70° C. […] Each Sebutape® patch was analyzed for quantity in nanograms of azithromycin.
# [7] = system: acne; conditions: 500 mg/day for 4 days in four cycles every 10 days; Gruber 1998; cited from earlier work
# [8] = 40 mg/day for 6 weeks, Day 0 (before treatment)
# [9] = 80 mg/day for 6 weeks, Day 0 (before treatment)
# [10] = 120 mg/day for 6 weeks, Day 0 (before treatment)
# [11] = 40 mg/day, Day 70 (28 days after last dose)
# [12] = 80 mg/day, Day 70 (28 days after last dose)
# [13] = 120 mg/day, Day 70 (28 days after last dose)
smiles,measurement,setting,value
"CC[C@H]1OC(=O)[C@H](C)[C@@H](O[C@H]2C[C@@](C)(OC)[C@@H](O)[C@H](C)O2)[C@H](C)[C@@H](O[C@@H]2O[C@H](C)C[C@H](N(C)C)[C@H]2O)[C@](C)(O)C[C@@H](C)CN(C)[C@H](C)[C@@H](O)[C@]1(C)O [Azithromycin, 9-deoxo-9a-aza-9a-methyl-9a-homoerythromycin A]",Inflammatory lesions (average count),[1]; [8],30.1
same,Nodules (average count),[1]; [8],5.2
same,Non-inflammatory lesions (average count),[1]; [8],36.5
same,Inflammatory lesions % Decrease from Day 0,"[1]; 40 mg/day for 6 weeks, Day 21",51.5%
same,Inflammatory lesions (average count),"[1]; 40 mg/day for 6 weeks, Day 21",14.4
same,Nodules % Decrease from Day 0,"[1]; 40 mg/day for 6 weeks, Day 21",62.4%
same,Nodules (average count),"[1]; 40 mg/day for 6 weeks, Day 21",2.2
same,Non-inflammatory lesions % Decrease from Day 0,"[1]; 40 mg/day for 6 weeks, Day 21",30.4%
same,Non-inflammatory lesions (average count),"[1]; 40 mg/day for 6 weeks, Day 21",23.9
same,Inflammatory lesions % Decrease from Day 0,"[1]; 40 mg/day for 6 weeks, Day 42",54.2%
same,Inflammatory lesions (average count),"[1]; 40 mg/day for 6 weeks, Day 42",13.8
same,Nodules % Decrease from Day 0,"[1]; 40 mg/day for 6 weeks, Day 42",82.2%
same,Nodules (average count),"[1]; 40 mg/day for 6 weeks, Day 42",1.2
same,Non-inflammatory lesions % Decrease from Day 0,"[1]; 40 mg/day for 6 weeks, Day 42",38.9%
same,Non-inflammatory lesions (average count),"[1]; 40 mg/day for 6 weeks, Day 42",21.5
same,Inflammatory lesions (average count),[1]; [9],37.0
same,Nodules (average count),[1]; [9],5.5
same,Non-inflammatory lesions (average count),[1]; [9],38.7
same,Inflammatory lesions % Decrease from Day 0,"[1]; 80 mg/day for 6 weeks, Day 21",44.7%
same,Inflammatory lesions (average count),"[1]; 80 mg/day for 6 weeks, Day 21",19.8
same,Nodules % Decrease from Day 0,"[1]; 80 mg/day for 6 weeks, Day 21",72.8%
same,Nodules (average count),"[1]; 80 mg/day for 6 weeks, Day 21",1.5
same,Non-inflammatory lesions % Decrease from Day 0,"[1]; 80 mg/day for 6 weeks, Day 21",34.7%
same,Non-inflammatory lesions (average count),"[1]; 80 mg/day for 6 weeks, Day 21",24.9
same,Inflammatory lesions % Decrease from Day 0,"[1]; 80 mg/day for 6 weeks, Day 42",53.7%
same,Inflammatory lesions (average count),"[1]; 80 mg/day for 6 weeks, Day 42",17.0
same,Nodules % Decrease from Day 0,"[1]; 80 mg/day for 6 weeks, Day 42",74.2%
same,Nodules (average count),"[1]; 80 mg/day for 6 weeks, Day 42",1.3
same,Non-inflammatory lesions % Decrease from Day 0,"[1]; 80 mg/day for 6 weeks, Day 42",24.7%
same,Non-inflammatory lesions (average count),"[1]; 80 mg/day for 6 weeks, Day 42",29.3
same,Inflammatory lesions (average count),[1]; [10],31.6
same,Nodules (average count),[1]; [10],4.7
same,Non-inflammatory lesions (average count),[1]; [10],37.7
same,Inflammatory lesions % Decrease from Day 0,"[1]; 120 mg/day for 6 weeks, Day 21",51.9%
same,Inflammatory lesions (average count),"[1]; 120 mg/day for 6 weeks, Day 21",15.6
same,Nodules % Decrease from Day 0,"[1]; 120 mg/day for 6 weeks, Day 21",78.6%
same,Nodules (average count),"[1]; 120 mg/day for 6 weeks, Day 21",1.0
same,Non-inflammatory lesions % Decrease from Day 0,"[1]; 120 mg/day for 6 weeks, Day 21",28.1%
same,Non-inflammatory lesions (average count),"[1]; 120 mg/day for 6 weeks, Day 21",27.8
same,Inflammatory lesions % Decrease from Day 0,"[1]; 120 mg/day for 6 weeks, Day 42",52.9%
same,Inflammatory lesions (average count),"[1]; 120 mg/day for 6 weeks, Day 42",14.8
same,Nodules % Decrease from Day 0,"[1]; 120 mg/day for 6 weeks, Day 42",73.7%
same,Nodules (average count),"[1]; 120 mg/day for 6 weeks, Day 42",1.1
same,Non-inflammatory lesions % Decrease from Day 0,"[1]; 120 mg/day for 6 weeks, Day 42",38.9%
same,Non-inflammatory lesions (average count),"[1]; 120 mg/day for 6 weeks, Day 42",23.2
same,number of inflammatory acne lesions,"[1]; any of 40, 80, or 120 mg per day, at 21 days and at 42 days",marked decrease
same,number of facial nodules,"[1]; any of 40, 80, or 120 mg, at both 21 and 42 days",marked decrease
same,response of non-inflammatory acne lesions,"[1]; daily treatment at each dosage level tested, 40, 80, or 120 mg",responded favorably
same,resolution of existing nodules,"[1]; examination at 21 days after initiation of treatment, daily administration",Complete resolution of existing nodules in several subjects
same,MIC90 against Streptococcus pyogenes,[2],0.12 µg/mL
same,subjects with adverse events,[3],11%
same,treatment of acne,[3],successful treatment
same,clearance of azithromycin from the pilosebaceous apparatus,[4]; after attaining saturation or near saturation levels,more than 28 days
same,Skin Concentration (median),"[4]; 40 mg/day, Day 0",0.00 ng/sample
same,Skin Concentration (median),"[4]; 40 mg/day, Day 21",0.34 ng/sample
same,Skin Concentration (median),"[4]; 40 mg/day, Day 42",0.59 ng/sample
same,Skin Concentration (median),[4]; [11],0.00 ng/sample
same,Skin Concentration (median),"[4]; 80 mg/day, Day 0",0.00 ng/sample
same,Skin Concentration (median),"[4]; 80 mg/day, Day 21",1.34 ng/sample
same,Skin Concentration (median),"[4]; 80 mg/day, Day 42",1.68 ng/sample
same,Skin Concentration (median),[4]; [12],0.47 ng/sample
same,Skin Concentration (median),"[4]; 120 mg/day, Day 0",0.00 ng/sample
same,Skin Concentration (median),"[4]; 120 mg/day, Day 21",1.65 ng/sample
same,Skin Concentration (median),"[4]; 120 mg/day, Day 42",1.99 ng/sample
same,Skin Concentration (median),[4]; [13],0.50 ng/sample
same,time to effective steady state level of azithromycin in skin,"[4]; low doses, following commencement of therapy, no initial spike dose",≤ 20 days
same,"dosage at which the skin becomes saturated, theorized from the data",[4]; theorized from Table 3 data,about 95 mg/day
same,MIC against P. acnes,[5],0.15 µg/mL
same,Sebum Concentration (median) ng per sample,"[6]; 40 mg/day, Day 0",0.00 ng per sample
same,Sebum Concentration (median),"[6]; 40 mg/day, Day 0, ng per sample divided by 1.38 mg",.00 ng/mg
same,Sebum Concentration (median),"[6]; 40 mg/day, Day 0, ng/mg times […]",.00 ng/µL
same,Sebum Concentration (median) ng per sample,"[6]; 40 mg/day, Day 21",0.00 ng per sample
same,Sebum Concentration (median),"[6]; 40 mg/day, Day 21, ng per sample divided by 1.38 mg",.00 ng/mg
same,Sebum Concentration (median),"[6]; 40 mg/day, Day 21, ng/mg times […]",.00 ng/µL
same,Sebum Concentration (median) ng per sample,"[6]; 40 mg/day, Day 42",0.19 ng per sample
same,Sebum Concentration (median),"[6]; 40 mg/day, Day 42, ng per sample divided by 1.38 mg",.14 ng/mg
same,Sebum Concentration (median),"[6]; 40 mg/day, Day 42, ng/mg times […]",.12 ng/µL
same,Sebum Concentration (median) ng per sample,[6]; [11],0.00 ng per sample
same,Sebum Concentration (median),"[6]; 40 mg/day, Day 70, ng per sample divided by 1.38 mg",.00 ng/mg
same,Sebum Concentration (median),"[6]; 40 mg/day, Day 70, ng/mg times […]",.00 ng/µL
same,Sebum Concentration (median) ng per sample,"[6]; 80 mg/day, Day 0",0.00 ng per sample
same,Sebum Concentration (median),"[6]; 80 mg/day, Day 0, ng per sample divided by 1.38 mg",.00 ng/mg
same,Sebum Concentration (median),"[6]; 80 mg/day, Day 0, ng/mg times […]",.00 ng/µL
same,Sebum Concentration (median) ng per sample,"[6]; 80 mg/day, Day 21",0.79 ng per sample
same,Sebum Concentration (median),"[6]; 80 mg/day, Day 21, ng per sample divided by 1.38 mg",.57 ng/mg
same,Sebum Concentration (median),"[6]; 80 mg/day, Day 21, ng/mg times […]",.50 ng/µL
same,Sebum Concentration (median) ng per sample,"[6]; 80 mg/day, Day 42",0.84 ng per sample
same,Sebum Concentration (median),"[6]; 80 mg/day, Day 42, ng per sample divided by 1.38 mg",.61 ng/mg
same,Sebum Concentration (median),"[6]; 80 mg/day, Day 42, ng/mg times […]",.53 ng/µL
same,Sebum Concentration (median) ng per sample,[6]; [12],0.00 ng per sample
same,Sebum Concentration (median),"[6]; 80 mg/day, Day 70, ng per sample divided by 1.38 mg",.00 ng/mg
same,Sebum Concentration (median),"[6]; 80 mg/day, Day 70, ng/mg times […]",.00 ng/µL
same,Sebum Concentration (median) ng per sample,"[6]; 120 mg/day, Day 0",0.00 ng per sample
same,Sebum Concentration (median),"[6]; 120 mg/day, Day 0, ng per sample divided by 1.38 mg",.00 ng/mg
same,Sebum Concentration (median),"[6]; 120 mg/day, Day 0, ng/mg times […]",.00 ng/µL
same,Sebum Concentration (median) ng per sample,"[6]; 120 mg/day, Day 21",0.76 ng per sample
same,Sebum Concentration (median),"[6]; 120 mg/day, Day 21, ng per sample divided by 1.38 mg",.55 ng/mg
same,Sebum Concentration (median),"[6]; 120 mg/day, Day 21, ng/mg times […]",.48 ng/µL
same,Sebum Concentration (median) ng per sample,"[6]; 120 mg/day, Day 42",0.88 ng per sample
same,Sebum Concentration (median) ng per sample,"[6]; 120 mg/day, Day 42, listed as azithromycin",about 0.88 ng per sample
same,Sebum Concentration (median),"[6]; 120 mg/day, Day 42, ng per sample divided by 1.38 mg",.64 ng/mg
same,Sebum Concentration (median),"[6]; 120 mg/day, Day 42, ng/mg times […]",.55 ng/µL
same,Sebum Concentration (median) ng per sample,[6]; [13],0.00 ng per sample
same,Sebum Concentration (median),"[6]; 120 mg/day, Day 70, ng per sample divided by 1.38 mg",.00 ng/mg
same,Sebum Concentration (median),"[6]; 120 mg/day, Day 70, ng/mg times […]",.00 ng/µL
same,concentration at 42 day,"[6]; 120 mg/day, Day 42, ng per sample divided by 1.38 mg, read-out: Sebum Concentration (median) ng/mg",~640 ng/g
same,concentration at 42 day,"[6]; 120 mg/day, Day 42, ng/mg times 0.87 mg/μl, read-out: Sebum Concentration (median)",~550 ng/mL
same,efficacy in the treatment of acne,[7],efficacious
same,gastrointestinal side effect rate,[7],about 10%
